Laboratory results taken from patent US11739098B2 (BRISTOL-MYERS SQUIBB COMPANY, priority 2017, dated 2023).

Key:
Type in all cases: cell-based
human TLR9 = molecular target: T1, human TLR9 (Homo sapiens, UniProt Q9NR96); experiment: TLR9 inhibition reporter assay (HEK-Blue cells, SEAP reporter, ODN2006 stimulation); settings: HEK-Blue cells overexpressing human TLR9, SEAP reporter, ODN2006 5 nM
T1 construct: host or cells: HEK-Blue cells (HEK293-derived reporter line)
T1 sequence (Q9NR96 26-1032): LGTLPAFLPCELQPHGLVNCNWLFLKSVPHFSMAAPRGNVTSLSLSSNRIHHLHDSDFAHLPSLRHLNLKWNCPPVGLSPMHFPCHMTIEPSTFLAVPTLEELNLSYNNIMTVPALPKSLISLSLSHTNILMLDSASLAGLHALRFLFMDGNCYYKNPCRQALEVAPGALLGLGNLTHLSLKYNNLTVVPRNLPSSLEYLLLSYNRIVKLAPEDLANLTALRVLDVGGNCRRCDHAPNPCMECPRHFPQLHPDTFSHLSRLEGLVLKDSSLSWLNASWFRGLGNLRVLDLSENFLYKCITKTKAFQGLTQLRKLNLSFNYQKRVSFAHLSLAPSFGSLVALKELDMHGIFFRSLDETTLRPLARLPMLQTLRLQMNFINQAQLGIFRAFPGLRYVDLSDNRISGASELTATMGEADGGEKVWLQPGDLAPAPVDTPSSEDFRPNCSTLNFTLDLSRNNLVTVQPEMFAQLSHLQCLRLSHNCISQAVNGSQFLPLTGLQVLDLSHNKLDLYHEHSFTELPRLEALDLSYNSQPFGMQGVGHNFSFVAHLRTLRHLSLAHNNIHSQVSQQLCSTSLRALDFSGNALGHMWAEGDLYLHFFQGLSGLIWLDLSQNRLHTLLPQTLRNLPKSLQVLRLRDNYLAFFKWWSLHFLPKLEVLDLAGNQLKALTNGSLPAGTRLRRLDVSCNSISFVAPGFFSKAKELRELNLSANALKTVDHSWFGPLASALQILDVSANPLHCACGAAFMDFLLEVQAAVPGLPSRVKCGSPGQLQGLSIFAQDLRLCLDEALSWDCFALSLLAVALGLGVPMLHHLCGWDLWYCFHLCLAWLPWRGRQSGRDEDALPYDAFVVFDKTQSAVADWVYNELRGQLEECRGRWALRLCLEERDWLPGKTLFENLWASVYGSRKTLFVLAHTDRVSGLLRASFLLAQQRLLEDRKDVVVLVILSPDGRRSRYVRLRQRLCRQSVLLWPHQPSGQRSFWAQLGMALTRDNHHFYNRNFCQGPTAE
In short: (§1)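 Agonists (final): TLR7 gardiquimod 7.5 μM; TLR8 R848 15.9 μM; TLR9 ODN2006 5 nM. HEK-Blue reporter cells, 30 min RT compound pre-incubation, 0.05 nM–50 μM dose range, 22 h at 37 °C, colorimetric SEAP detection medium. % inhibition relative to agonist+DMSO and known-inhibitor wells.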

human TLR7 = molecular target: T2, human TLR7 (Homo sapiens, UniProt Q9NYK1); experiment: TLR7 inhibition reporter assay (HEK-Blue cells, SEAP reporter, gardiquimod stimulation); settings: HEK-Blue cells overexpressing human TLR7, SEAP reporter, gardiquimod 7.5 μM
T2 construct: host or cells: HEK-Blue cells (HEK293-derived reporter line)
T2 sequence (Q9NYK1 27-1049): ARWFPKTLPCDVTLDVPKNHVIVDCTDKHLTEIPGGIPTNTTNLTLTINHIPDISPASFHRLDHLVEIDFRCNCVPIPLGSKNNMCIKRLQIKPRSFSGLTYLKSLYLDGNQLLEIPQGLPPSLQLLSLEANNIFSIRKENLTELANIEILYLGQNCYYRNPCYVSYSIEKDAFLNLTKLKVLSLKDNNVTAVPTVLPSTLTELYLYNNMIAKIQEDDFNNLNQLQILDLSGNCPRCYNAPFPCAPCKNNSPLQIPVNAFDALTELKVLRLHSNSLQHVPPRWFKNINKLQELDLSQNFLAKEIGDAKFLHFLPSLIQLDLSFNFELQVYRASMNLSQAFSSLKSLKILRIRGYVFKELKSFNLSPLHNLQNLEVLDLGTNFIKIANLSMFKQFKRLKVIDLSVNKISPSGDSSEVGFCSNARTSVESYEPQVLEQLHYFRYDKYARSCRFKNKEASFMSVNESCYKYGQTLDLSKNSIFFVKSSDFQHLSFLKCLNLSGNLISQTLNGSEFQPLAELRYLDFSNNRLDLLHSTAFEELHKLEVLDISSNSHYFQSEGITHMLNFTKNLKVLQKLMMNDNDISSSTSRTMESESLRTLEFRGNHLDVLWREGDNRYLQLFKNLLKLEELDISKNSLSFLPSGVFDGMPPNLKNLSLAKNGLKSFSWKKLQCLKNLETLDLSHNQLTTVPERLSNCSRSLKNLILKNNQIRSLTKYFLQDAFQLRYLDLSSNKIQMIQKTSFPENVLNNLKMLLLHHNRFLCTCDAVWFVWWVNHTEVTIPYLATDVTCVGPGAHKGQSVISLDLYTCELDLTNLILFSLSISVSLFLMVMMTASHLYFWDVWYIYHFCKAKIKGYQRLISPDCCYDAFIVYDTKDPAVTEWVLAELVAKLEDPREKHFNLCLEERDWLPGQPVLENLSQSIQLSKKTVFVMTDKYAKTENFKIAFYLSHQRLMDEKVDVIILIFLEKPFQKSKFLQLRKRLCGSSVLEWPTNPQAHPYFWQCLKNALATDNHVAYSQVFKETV
In short: as §1

human TLR8 = molecular target: T3, human TLR8 (Homo sapiens, UniProt Q9NR97); experiment: TLR8 inhibition reporter assay (HEK-Blue cells, SEAP reporter, R848 stimulation); settings: HEK-Blue cells overexpressing human TLR8, SEAP reporter, R848 15.9 μM
T3 construct: host or cells: HEK-Blue cells (HEK293-derived reporter line)
T3 sequence (Q9NR97 27-1041): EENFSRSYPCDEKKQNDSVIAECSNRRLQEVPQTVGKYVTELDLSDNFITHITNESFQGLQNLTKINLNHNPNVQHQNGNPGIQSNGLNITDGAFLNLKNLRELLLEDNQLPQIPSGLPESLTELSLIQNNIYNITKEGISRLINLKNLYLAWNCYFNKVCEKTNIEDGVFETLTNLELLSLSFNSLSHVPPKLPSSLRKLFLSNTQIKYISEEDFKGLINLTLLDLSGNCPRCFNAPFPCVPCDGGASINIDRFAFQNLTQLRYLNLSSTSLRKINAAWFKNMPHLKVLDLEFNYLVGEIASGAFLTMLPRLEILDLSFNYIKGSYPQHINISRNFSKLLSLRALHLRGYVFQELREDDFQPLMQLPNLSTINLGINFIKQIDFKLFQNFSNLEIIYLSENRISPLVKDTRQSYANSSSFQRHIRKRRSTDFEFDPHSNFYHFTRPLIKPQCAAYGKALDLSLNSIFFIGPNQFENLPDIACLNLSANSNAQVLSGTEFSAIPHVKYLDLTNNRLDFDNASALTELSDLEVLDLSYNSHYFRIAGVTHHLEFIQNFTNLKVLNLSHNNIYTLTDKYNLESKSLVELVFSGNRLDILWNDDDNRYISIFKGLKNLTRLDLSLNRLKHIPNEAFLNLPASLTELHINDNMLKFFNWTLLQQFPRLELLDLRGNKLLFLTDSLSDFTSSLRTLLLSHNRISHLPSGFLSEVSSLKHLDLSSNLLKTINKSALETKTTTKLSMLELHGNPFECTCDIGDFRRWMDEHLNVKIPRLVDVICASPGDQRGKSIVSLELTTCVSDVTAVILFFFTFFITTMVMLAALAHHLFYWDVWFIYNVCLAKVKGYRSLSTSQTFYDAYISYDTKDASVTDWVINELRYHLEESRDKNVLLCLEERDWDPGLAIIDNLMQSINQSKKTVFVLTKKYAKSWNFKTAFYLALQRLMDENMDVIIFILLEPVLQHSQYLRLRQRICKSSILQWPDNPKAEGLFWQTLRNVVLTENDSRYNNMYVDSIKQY
In short: as §1

`Cc1c(-c2[nH]c3ccc(C4CCN(C5COC5)CC4)cc3c2C(C)C)nn2ncnc2c1C` [Example 730, 6-(3-isopropyl-5-(1-(oxetan-3-yl)piperidin-4-yl)-1H-indol-2-yl)-7,8-dimethyl-[1,2,4]triazolo[1,5-b]pyridazine] was tested, and the IC50 (human TLR9) was 1000 to 50000 nM, the IC50 (human TLR7) was < 100 nM and the IC50 (human TLR8) was < 100 nM.

With `Cc1c(-c2[nH]c3ccc(C4CCN(CC(C)(C)O)CC4)cc3c2C(C)C)ccc2c1cnn2C` [Example 763, 1-(4-(2-(1,4-dimethyl-1H-indazol-5-yl)-3-isopropyl-1H-indol-5-yl)piperidin-1-yl)-2-methylpropan-2-ol] the IC50 (human TLR9) was 1000 to 50000 nM, the IC50 (human TLR7) was < 100 nM and the IC50 (human TLR8) was < 100 nM.

With `CC(C)c1c(-c2ccnc3[nH]ncc23)[nH]c2ccc(C3CCN(C(=O)CN4CCC(CO)CC4)CC3)cc12` [Example 576, 2-(4-(hydroxymethyl)piperidin-1-yl)-1-(4-(3-isopropyl-2-(1H-pyrazolo[3,4-b]pyridin-4-yl)-1H-indol-5-yl)piperidin-1-yl)ethan-1-one] the IC50 (human TLR9) was 1000 to 50000 nM, the IC50 (human TLR7) was < 100 nM and the IC50 (human TLR8) was < 100 nM.

`Cc1cc(-c2[nH]c3ccc(C4CCNCC4)cc3c2C(C)C)cc2c(C(=O)N(C)C)cnn12` [Example 275, 5-(3-isopropyl-5-(piperidin-4-yl)-1H-indol-2-yl)-N,N,7-trimethylpyrazolo[1,5-a]pyridine-3-carboxamide] was tested, and the IC50 (human TLR9) was 1000 to 50000 nM, the IC50 (human TLR7) was 100 to 1000 nM and the IC50 (human TLR8) was > 3130 nM.

With `CC(C)c1c(-c2cnc3ncnn3c2)[nH]c2ccc(C3CCN(CC(C)(C)O)CC3)cc12` [Example 773, 1-(4-(2-([1,2,4]triazolo[1,5-a]pyrimidin-6-yl)-3-isopropyl-1H-indol-5-yl)piperidin-1-yl)-2-methylpropan-2-ol] the IC50 (human TLR9) was 1000 to 50000 nM, the IC50 (human TLR7) was 100 to 1000 nM and the IC50 (human TLR8) was < 100 nM.

For `Cc1nc2cc(-c3[nH]c4ccc(C5CCN(C6COC6)CC5)cc4c3C(C)C)cc(C)c2o1` [Example 709, 5-(3-isopropyl-5-(1-(oxetan-3-yl)piperidin-4-yl)-1H-indol-2-yl)-2,7-dimethylbenzo[d]oxazole], the IC50 (human TLR9) was 1000 to 50000 nM, the IC50 (human TLR7) was 100 to 1000 nM and the IC50 (human TLR8) was 1000 to 50000 nM.

With `Cc1c(-c2[nH]c3ccc(C4CCNCC4)cc3c2C(C)C)c2cccnc2n1C` [Example 37, 3-(3-isopropyl-5-(piperidin-4-yl)-1H-indol-2-yl)-1,2-dimethyl-1H-pyrrolo[2,3-b]pyridine] the IC50 (human TLR9) was 1000 to 50000 nM, the IC50 (human TLR7) was < 100 nM and the IC50 (human TLR8) was < 100 nM.

In the case of `CNC(=O)CN1CCC(c2ccc3[nH]c(-c4nn5ncnc5c(OC)c4C)c(C(C)C)c3c2)CC1` [Example 281, 2-(4-(3-isopropyl-2-(8-methoxy-7-methyl-[1,2,4]triazolo[1,5-b]pyridazin-6-yl)-1H-indol-5-yl)piperidin-1-yl)-N-methylacetamide], the IC50 (human TLR9) is reported as 1000 to 50000 nM, the IC50 (human TLR7) is reported as < 100 nM and the IC50 (human TLR8) is reported as < 100 nM.

For `Cc1nnn2ccc(-c3[nH]c4ccc(C5CCN(Cc6ncn(C)n6)CC5)cc4c3C(C)C)cc12` [Example 889, 5-(3-isopropyl-5-(1-((1-methyl-1H-1,2,4-triazol-3-yl)methyl)piperidin-4-yl)-1H-indol-2-yl)-3-methyl-[1,2,3]triazolo[1,5-a]pyridine], the IC50 (human TLR9) was 1000 to 50000 nM, the IC50 (human TLR7) was < 100 nM and the IC50 (human TLR8) was < 100 nM.

For `Cc1cc(-c2[nH]c3ccc(C4CCN(C(=O)CN5CC(C)(C)OC(C)(C)C5)CC4)cc3c2C(C)C)cn2nnnc12` [Example 473, 1-(4-(3-isopropyl-2-(8-methyltetrazolo[1,5-a]pyridin-6-yl)-1H-indol-5-yl)piperidin-1-yl)-2-(2,2,6,6-tetramethylmorpholino)ethan-1-one], the IC50 (human TLR9) was > 50000 nM, the IC50 (human TLR7) was < 100 nM and the IC50 (human TLR8) was 100 to 1000 nM.

`Cc1cc(-c2[nH]c3ccc(C4CCN(CC(=O)N(C)C)CC4)cc3c2C(C)C)nc2scnc12` [Example 407, 2-(4-(3-isopropyl-2-(7-methylthiazolo[5,4-b]pyridin-5-yl)-1H-indol-5-yl)piperidin-1-yl)-N,N-dimethylacetamide] was tested, and the IC50 (human TLR9) was 1000 to 50000 nM, the IC50 (human TLR7) was < 100 nM and the IC50 (human TLR8) was < 100 nM.

`CC(C)c1c(-c2ccc3[nH]ccc3c2)[nH]c2ccc(C3CCNCC3)cc12` [Example 66, 3-isopropyl-5-(piperidin-4-yl)-1H,1′H-2,5′-biindole] was tested, and the IC50 (human TLR9) was 1000 to 50000 nM, the IC50 (human TLR7) was 1000 to 50000 nM and the IC50 (human TLR8) was 1000 to 50000 nM.

`CCc1c(-c2ccnc3nn[nH]c23)[nH]c2ccc(C3CCNCC3)cc12` [Example 56, 7-(3-ethyl-5-(piperidin-4-yl)-1H-indol-2-yl)-1H-[1,2,3]triazolo[4,5-b] pyridine] was tested, and the IC50 (human TLR9) was 1000 to 50000 nM, the IC50 (human TLR7) was 1000 to 50000 nM and the IC50 (human TLR8) was 1000 to 50000 nM.

For `COc1cc(-c2[nH]c3ccc(C4CCN(C(=O)CN(C)C)CC4)cc3c2C(C)C)cn2ccnc12` [Example 558, 2-(dimethylamino)-1-(4-(3-isopropyl-2-(8-methoxyimidazo[1,2-a]pyridin-6-yl)-1H-indol-5-yl)piperidin-1-yl) ethan-1-one], the IC50 (human TLR9) was 100 to 1000 nM, the IC50 (human TLR7) was < 100 nM and the IC50 (human TLR8) was < 100 nM.
